# According to ChEMBL document CHEMBL3351874, “Rational design of inhibitors of the bacterial cell wall synthetic enzyme GlmU using virtual screening and lead-hopping” (Bioorg Med Chem, 2014):
# Assays:
# [1] = Serum protein binding in human at 10 uM after 30 mins by ultrafiltration method; assay type: ADME; details: read-out: PB (converted)
# [2] = target: Bifunctional protein GlmU (Escherichia coli, UniProt C3SLB7); experiment: Inhibition of Escherichia coli ATCC 27325 GlmU expressed in Escherichia coli HMS174(DE3) incubated for 15 mins prior to MgCl2 addition measured after 30 mins by malachite green staining-based assay
# [3] = Inhibition of Haemophilus influenzae ATCC 51907 GlmU expressed in Escherichia coli BL21(DE3) incubated for 15 mins prior to MgCl2 addition measured after 30 mins by malachite green staining-based assay
# Chain of Bifunctional protein GlmU (C3SLB7 whole entry): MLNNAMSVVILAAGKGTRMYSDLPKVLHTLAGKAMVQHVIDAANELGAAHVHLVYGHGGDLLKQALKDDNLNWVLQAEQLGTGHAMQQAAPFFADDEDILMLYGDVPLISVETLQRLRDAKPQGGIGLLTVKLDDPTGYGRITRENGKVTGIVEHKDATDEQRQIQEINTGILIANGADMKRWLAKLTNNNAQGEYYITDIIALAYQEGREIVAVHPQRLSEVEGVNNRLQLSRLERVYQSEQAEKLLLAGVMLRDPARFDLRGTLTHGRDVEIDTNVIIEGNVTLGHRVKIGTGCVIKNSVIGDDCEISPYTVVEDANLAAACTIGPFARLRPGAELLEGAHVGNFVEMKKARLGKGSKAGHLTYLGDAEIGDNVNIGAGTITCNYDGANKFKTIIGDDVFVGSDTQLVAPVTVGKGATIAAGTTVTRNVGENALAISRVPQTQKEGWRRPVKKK
compound,measurement,setting,value
COc1cc(C(=O)Nc2ccc(NC(=O)c3ccccn3)cc2)cc(-c2cnc(=O)[nH]c2)c1,"fraction unbound at 0.5 h, 10 µM",[1],< 0.01
same,IC50,[2],4.2 µM
same,IC50,[3],0.98 µM
O=c1[nH]cc(-c2cccc(Br)c2)c(=O)[nH]1,IC50,[3],50 µM
O=c1[nH]cc(-c2cccc([N+](=O)[O-])c2)c(=O)[nH]1,IC50,[3],1950 µM
COc1cc(C(=O)Nc2ccc(NC(=O)c3ccccc3)cc2)cc(-c2c[nH]c(=O)[nH]c2=O)c1O,"fraction unbound at 0.5 h, 10 µM",[1],0.019
same,IC50,[2],0.26 µM
same,IC50,[3],0.02 µM
COc1cc(C(=O)Nc2ccc(NC(=O)c3ccccc3)cc2)ccc1OCC(N)=O,IC50,[2],> 22 µM
same,IC50,[3],> 22 µM
COc1cc2c(Nc3ccc(NC(=O)c4ccccc4)cc3)nc(Cl)nc2cc1O,"fraction unbound at 0.5 h, 10 µM",[1],0.021
same,IC50,[2],0.37 µM
same,IC50,[3],0.65 µM
COc1cc(C(=O)Nc2ccc(NC(=O)c3ccccn3)cc2)cc(-c2nn[nH]n2)c1,"fraction unbound at 0.5 h, 10 µM",[1],0.032
same,IC50,[2],21 µM
same,IC50,[3],0.55 µM
COc1cc(C(=O)Nc2ccc(NC(=O)c3ccccn3)cc2)cc(-c2nc(=O)o[nH]2)c1,"fraction unbound at 0.5 h, 10 µM",[1],0.016
same,IC50,[2],> 22 µM
same,IC50,[3],1.7 µM
COc1cc2c(Nc3ccc(NC(=O)c4ccccc4)cc3)nc(-c3ccccn3)nc2cc1O,"fraction unbound at 0.5 h, 10 µM",[1],< 0.01
same,IC50,[2],2.7 µM
same,IC50,[3],1.5 µM
COc1cc2c(Nc3ccc(NC(=O)c4ccccc4)cc3)nc(Cc3ccccc3)nc2cc1O,"fraction unbound at 0.5 h, 10 µM",[1],< 0.01
same,IC50,[2],4.8 µM
same,IC50,[3],1.8 µM
COc1cc2c(Nc3ccc(NC(=O)c4ccccc4)cc3)nc(NCCCn3ccnc3)nc2cc1O,"fraction unbound at 0.5 h, 10 µM",[1],0.012
same,IC50,[2],4.5 µM
same,IC50,[3],1.12 µM
